This assay addresses Chaperone protein DnaK (Escherichia coli (strain K12)) (UniProt P0A6Y8). Kind of assay: E. coli DnaK SBD ligand binding – biophysical, NMR, chaperone (AID 1033). To be noted: Purified DnaK SBD.

Active and inactive are the calls of the source. No rule for the calls is given here. Bounds are passed on as bounds.

Sequence of Chaperone protein DnaK (Escherichia coli (strain K12)) (P0A6Y8 whole entry, looked up): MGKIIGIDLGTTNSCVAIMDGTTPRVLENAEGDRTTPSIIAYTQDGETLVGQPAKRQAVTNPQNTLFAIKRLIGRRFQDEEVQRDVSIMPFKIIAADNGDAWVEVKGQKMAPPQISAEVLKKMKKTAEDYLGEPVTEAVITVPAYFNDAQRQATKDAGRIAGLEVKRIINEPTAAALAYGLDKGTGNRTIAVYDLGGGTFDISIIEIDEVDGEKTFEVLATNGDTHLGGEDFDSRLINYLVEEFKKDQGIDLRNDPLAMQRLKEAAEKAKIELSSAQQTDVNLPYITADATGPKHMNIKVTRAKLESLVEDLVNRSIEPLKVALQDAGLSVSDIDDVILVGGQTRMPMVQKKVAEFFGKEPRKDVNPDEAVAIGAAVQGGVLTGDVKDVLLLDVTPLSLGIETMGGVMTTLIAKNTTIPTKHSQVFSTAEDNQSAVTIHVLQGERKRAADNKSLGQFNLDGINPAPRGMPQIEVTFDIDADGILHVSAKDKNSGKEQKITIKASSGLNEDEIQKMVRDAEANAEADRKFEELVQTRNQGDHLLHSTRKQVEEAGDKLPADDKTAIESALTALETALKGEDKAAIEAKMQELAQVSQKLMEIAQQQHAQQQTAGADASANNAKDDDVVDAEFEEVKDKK

For the compound `CC1=C(/C=C/C(C)=C/C=C/C(C)=C/C=C/C=C(C)/C=C/C=C(C)/C=C/C(=O)[C@]2(C)C[C@@H](O)CC2(C)C)C(C)(C)C[C@H](O)C1`, the Kd (as a rule, a measure of binding affinity in units of concentration) is > 4 mM (inactive). `Cc1cc(C)n2c(SCc3c(C)noc3C)nnc2n1`: the Kd is > 4 mM (inactive).

`O=C(NCCCSc1ncccn1)Nc1ncccn1`: the Kd is > 4 mM (inactive).

As to `CSc1ccccc1NC(=O)c1c(C)noc1C`, the Kd was > 4 mM (inactive).

As to `CS(=O)(=O)c1nncn1-c1ccccc1`, the Kd was > 4 mM (inactive). In the case of `O=C(Nc1ccc2c(c1)OCO2)c1cnn2cccnc12`, the Kd is > 4 mM (inactive). Turning to `COc1ccc2c3c([nH]c2c1)C(C)=NCC3`, the Kd was > 4 mM (inactive).

As to `C=C1C(=O)O[C@@H]2C[C@@]3(C)CCC[C@H](C)C3=C[C@H]12`, the Kd was > 4 mM (inactive).

In the case of `NCc1ccc(-c2cccs2)s1`, the Kd was > 4 mM (inactive). As to `O=S1(=O)CCC(NC(=S)N2CCCCC2)C1` (stereo not drawn), the Kd was > 4 mM (inactive). For `C=C1C(=O)O[C@@H]2C3OC3(C)CC/C=C(\C)CC[C@@H]12` (stereo partly drawn), the Kd was > 4 mM (inactive). On to `O=S1(=O)CCC(N2CCCCC2)C1` (stereo not drawn), for which the Kd is > 4 mM (inactive). With `CN1CCC=C(C(=O)O)C1`, the Kd was > 4 mM (inactive).

For `CC1=NNC(=O)C1CCc1ccncc1` (stereo not drawn), the Kd is > 4 mM (inactive). For `CSc1nc(-c2ccco2)nn1S(C)(=O)=O`, the Kd is > 4 mM (inactive). `O=C(O)CCCc1nc2ccccc2s1`: the Kd was > 4 mM (inactive).

For the compound `O=c1ccc(=O)n(CN2CCc3ccccc3C2)[nH]1`, the Kd is > 4 mM (inactive). For the compound `CC1(C)Cc2nc(N3CCOCC3)c(C#N)cc2CO1`, the Kd was > 4 mM (inactive). The value for `OCc1ccc(OC(F)(F)F)cc1` was > 4 mM (inactive). `Cc1csc(SCC(=O)N2CCCC2)n1`: the Kd is > 4 mM (inactive). Regarding `O=c1oc2ccccc2cc1O`, the Kd was > 4 mM (inactive). Take `CC(C)[C@@H]1CC[C@@H](C)C[C@H]1O`: the Kd was > 4 mM (inactive). Consider `Cc1cc(C(F)(F)F)n2nc(C(=O)O)c(Cl)c2n1`, for which the Kd is > 4 mM (inactive).

With `Cc1nnc(NCc2ccc3c(c2)OCO3)[nH]c1=O`, the Kd was > 4 mM (inactive). Regarding `Oc1ccccc1-c1cc(C(F)(F)F)[nH]n1`, the Kd was > 4 mM (inactive). The value for `CC(=O)Nc1nc(C)nc(-c2ccccc2)c1C(C)=O` was > 4 mM (inactive); that for `O=C(O)CCc1nc2ccccc2[nH]c1=O` was > 4 mM (inactive); that for `Cc1nc2sccn2c1C(=O)O` was > 4 mM (inactive). For the compound `O=c1nc(N2CCCCC2)nc2n1CCO2`, the Kd is > 4 mM (inactive).

Consider `Cc1cc(C)n(-c2nncn2N)n1`, for which the Kd was > 4 mM (inactive).

As to `C[C@@H]1OC(O[C@H]2C(O[C@H]3CC[C@@]4(C)C(CC[C@]5(C)C4CC=C4C6CC(C)(C)CC[C@]6(C(=O)O)CC[C@]45C)[C@]3(C)CO)OC[C@H](O)[C@@H]2O)[C@H](O)[C@H](O)[C@H]1O` (stereo partly drawn), the Kd was > 4 mM (inactive). The figure for `CN1CCN(C(=O)c2cc(-c3ccccc3)on2)CC1` is > 4 mM (inactive); for `NC(=O)Cc1nc2ccccc2[nH]1` it is > 4 mM (inactive); for `COc1cc(C(C)=O)ccc1OCC(O)Cn1ccnc1` (stereo not drawn) it is > 4 mM (inactive). For `Cc1ccc(C(=O)N2CC(=O)NC(=O)C2)cc1`, the Kd was > 4 mM (inactive). `CN1CCN(c2ccc(N)cc2)CC1`: the Kd was > 4 mM (inactive). With `CS(=O)(=O)NN=C1CCCCC1`, the Kd was > 4 mM (inactive).

`CN1CCN(C(=O)Nc2cccc3ccccc23)CC1`: the Kd is > 4 mM (inactive).

For `Cc1ccc(N2C(=O)CCC2=O)cc1`, the Kd was > 4 mM (inactive). For the compound `CS(=O)(=O)CCCCN=C=S`, the Kd is > 4 mM (inactive). The figure for `Cn1c(=O)[nH]c2nc[nH]c2c1=O` is > 4 mM (inactive); for `Cc1cc(O)cc(=O)o1` it is > 4 mM (inactive). Take `CC(=O)Nc1ccc(S(=O)(=O)Nc2cc(C)on2)cc1`: the Kd was > 4 mM (inactive). Take `O=C(c1cccc(C(F)(F)F)c1)N1CCCC1`: the Kd was > 4 mM (inactive).

Consider `Nc1cccc2nonc12`, for which the Kd was > 4 mM (inactive). For `COc1cc2c(cc1OC)[C@@H]1C(=O)c3ccc(OC)c(CC=C(C)C)c3O[C@@H]1CO2`, the Kd was > 4 mM (inactive).

For the compound `O=C(CN1C(=O)c2cccc3cccc(c23)C1=O)NO`, the Kd was > 4 mM (inactive). For the compound `CCOC(=O)c1c(C)nc2c(C#N)cnn2c1C`, the Kd was > 4 mM (inactive).

Regarding `C=C(C)C1Cc2c(ccc(C(=O)O)c2O)O1` (stereo not drawn), the Kd is > 4 mM (inactive). Take `CC(=O)CC1(O)C(=O)Nc2ccccc21` (stereo not drawn): the Kd was > 4 mM (inactive). For `O=C(OCc1c(Cl)cccc1Cl)c1cnccn1`, the Kd is > 4 mM (inactive). For `O=c1c2ccccc2oc2ccc(O)cc12`, the Kd is > 4 mM (inactive). For `Nc1ncnc2nc(SCCN3CCCCC3)[nH]c12`, the Kd was > 4 mM (inactive). Turning to `Nc1cc(F)nc(F)n1`, the Kd is > 4 mM (inactive). Take `Nc1ccc(OCc2ccccc2)cc1`: the Kd is > 4 mM (inactive). The value for `[O-][n+]1cc(O)c(CN2CCOCC2)c2ccccc21` was > 4 mM (inactive); that for `NCC1CN(Cc2ccccc2)CCO1` (stereo not drawn) was > 4 mM (inactive); that for `Nc1cccc(S(N)(=O)=O)c1` was > 4 mM (inactive).

For `NC(=O)C1CCN(S(=O)(=O)c2ccccc2)CC1`, the Kd was > 4 mM (inactive). In the case of `COc1ccc2c(c1)=C(c1sc(N)nc1O)C(=O)N=2`, the Kd is > 4 mM (inactive).

As for `OC[C@H]1O[C@@](CO)(O[C@@H]2O[C@H](CO)[C@@H](O)[C@H](O)[C@H]2O)[C@@H](O[C@@H]2O[C@H](CO)[C@@H](O)[C@H](O)[C@H]2O)[C@@H]1O`, the Kd was > 4 mM (inactive). Take `O=S1(=O)CCC(NC(=S)Nc2ccc(O)cc2)C1` (stereo not drawn): the Kd is > 4 mM (inactive).

With `Nc1cc(F)cc(F)c1`, the Kd was > 4 mM (inactive).

For the compound `O=C(NCc1ccccn1)c1ccc(Br)s1`, the Kd is > 4 mM (inactive).

On to `Cc1cc(C)nc(/N=C(/N)N2CCOCC2)n1`, for which the Kd is > 4 mM (inactive). Take `CC1(C)C(=O)C=C[C@@]2(C)C1=C(O)C(=O)[C@]1(C)C2CC[C@@]2(C)[C@H](c3ccoc3)C[C@H]3O[C@]321` (stereo partly drawn): the Kd is > 4 mM (inactive).

As for `Cc1ccc(S(=O)(=O)CC(N)=O)cc1`, the Kd is > 4 mM (inactive). Take `O=C(Nc1ccc2c(c1)OCCO2)c1ccncc1`: the Kd was > 4 mM (inactive). `CC(=O)OC/C=C(\C)CC/C=C(\C)CC/C=C(\C)CC/C=C(\C)CC/C=C(\C)CC/C=C(\C)CC/C=C(\C)CC/C=C(\C)CCC=C(C)C`: the Kd was > 4 mM (inactive). The value for `CC(=O)Nc1ccc(S(N)(=O)=O)cc1` was > 4 mM (inactive); that for `CCOC(=O)c1csc(C2COc3ccccc3O2)n1` (stereo not drawn) was > 4 mM (inactive).

As for `Cc1cc(C)n2c(SCc3cccs3)nnc2n1`, the Kd was > 4 mM (inactive). Turning to `O=C1CSC(=S)N1Cc1cccnc1`, the Kd is > 4 mM (inactive). On to `CNS(=O)(=O)c1cccs1`, for which the Kd was > 4 mM (inactive). As for `Cc1nc2ccccc2c2c1C(=O)N(N)C2=O`, the Kd was > 4 mM (inactive). Take `NCCc1cnc[nH]1`: the Kd is > 4 mM (inactive). The value for `O=C(O)C(O)C(O)C(O)C(O)C(=O)O` (stereo not drawn) was > 4 mM (inactive).

As for `N#CCSc1nc(-c2ccccc2)cs1`, the Kd was > 4 mM (inactive). Take `Nc1cc(N)nc(SCc2ccccc2)n1`: the Kd is > 4 mM (inactive). Regarding `Cc1cc(C(=O)O)n[nH]1`, the Kd was > 4 mM (inactive).

In the case of `COc1ccc(-c2coc3c(OC)c(OC)cc(O)c3c2=O)cc1`, the Kd was > 4 mM (inactive). Regarding `CC(C)CCCC(C)[C@H]1CCC2C3CC[C@@H]4C[C@H](O)CC[C@]4(C)C3CC[C@@]21C` (stereo partly drawn), the Kd is > 4 mM (inactive). With `CC(=O)Nc1cccs1`, the Kd was > 4 mM (inactive). Consider `Cc1cc(=O)cc(C)n1NC(N)=S`, for which the Kd was > 4 mM (inactive).

As to `NC(=O)Cn1cnc2c(cnn2-c2ccccc2)c1=O`, the Kd was > 4 mM (inactive).

`O=C(NC(O)C(=O)c1ccccc1)c1ccco1` (stereo not drawn): the Kd was > 4 mM (inactive). For `COc1ccc(-c2cc(=O)c3c(OC)c(OC)c(OC)c(OC)c3o2)cc1`, the Kd was > 4 mM (inactive). Regarding `O=C(O)CCCC(=O)Nc1nccs1`, the Kd was > 4 mM (inactive).

Take `CC(=O)O[C@H]1C[C@@H](OC(C)=O)C(C)(C)C2C[C@@H](O)[C@]3(C)C(CC[C@@]4(C)[C@H](c5ccoc5)OC(=O)[C@H]5O[C@]543)[C@]21C` (stereo partly drawn): the Kd was > 4 mM (inactive).

For `O=C(Nc1cccnc1)Nc1ccc2c(c1)OCO2`, the Kd was > 4 mM (inactive). Turning to `O=C1C=CC2=C3c4cc(O)c(O)cc4C[C@@]3(O)COC2=C1`, the Kd was > 4 mM (inactive).

In the case of `COC(=O)c1cncn1C`, the Kd was > 4 mM (inactive).

In the case of `OCCOc1ccc(C2=NCCO2)cc1`, the Kd is > 4 mM (inactive). As to `NC(=O)COc1ccccc1O`, the Kd was > 4 mM (inactive).

With `COc1cc(N)ccc1NC(=O)c1cccs1`, the Kd was > 4 mM (inactive).

Turning to `Cc1ccc(CNC(=O)c2ccc([N+](=O)[O-])o2)cc1`, the dissociation constant Kd was below 0.2 mM.

In the case of `O=C1N=c2ccccc2=C1c1[nH]c(=S)[nH]c1O`, the Kd was > 4 mM (inactive). Consider `Cc1ccc(-c2nn3c(C)nnc3s2)cc1N`, for which the Kd was > 4 mM (inactive). As for `CCOC(=O)C1C(=O)C2CCN1CC2` (stereo not drawn), the Kd was > 4 mM (inactive). Regarding `Nc1cccc(F)c1-c1ncon1`, the Kd was > 4 mM (inactive).

As for `Nc1nc(-c2ccncc2)cs1`, the Kd is > 4 mM (inactive). In the case of `CCn1ncc(Cl)c1C(=O)Nc1ccncc1`, the Kd was > 4 mM (inactive). As to `NC(=O)C(=O)Nc1nc(-c2ccccc2)cs1`, the Kd is > 4 mM (inactive).
